How the values were obtained:
[1] = Solubility of photochromic compound in polymerizable compounds; type: physicochemical; design: key: 1: No haze is seen when checked under transmission of light, and the sample is completely dissolved.; 2: A very thin haze is seen to the extent that it can be seen under transmission of light.; 3: A thin haze that can be seen under transmission of light is seen.; 4: A haze can be seen even without transmission of light; details: 35 µmol/g in radical polymerizable compound composition of Example 21, 65 to 70°C; for Dissolution for 15 min / Dissolution for 30 min / Dissolution for 45 min: stirring and ultrasonic irradiation; for Dissolution for 1 hour: head reads 60 min in Tables 8 to 14
Description: The photochromic compounds according to Examples and Comparative examples shown in Table 5 were evaluated for solubility in polymerizable compounds.
Specifically, a sample was prepared by adding each of the photochromic compounds to the composition, which consisted of a radical polymerizable compound, among the curable compositions used in Example 21.
Note that, this test was performed using "YOKAI-KUN USS-1" manufactured by NIHONSEIKI KAISHA LTD. under the following conditions: • Dissolution temperature: 65 to 70°C • Stirring condition: Stirring dial of 5. Ultrasonic irradiation condition: Irradiation interval of 3 sec.
Dissolution was checked every 15 minutes up to 1 hour later, the sample was visually checked by transmitting light through the sample, and a degree of dissolution was evaluated according to the following four evaluation criteria.
• 1: No haze is seen when checked under transmission of light, and the sample is completely dissolved. • 2: A very thin haze is seen to the extent that it can be seen under transmission of light. • 3: A thin haze that can be seen under transmission of light is seen. • 4: A haze can be seen even without transmission of light.
A shorter time required for the evaluation result to be 1 means higher solubility.

[2] = Photochromic property of photochromic laminate made by coating method; type: physicochemical; details: for Residual ratio / Color developing density at 23°C: laminate by coating method; for Residual ratio: A96/A0 x 100 after 96 hours accelerated degradation, xenon weather meter X25; for Color developing density at 23°C: absorbance difference after 240 seconds irradiation at the maximum absorption wavelength of the same line
Source text: First, the photochromic compound obtained in Example 1, a photoinitiator, and a polymerizable compound were mixed to obtain a curable composition.
The polymerizable compound was a combination of the following radical polymerizable monomers:
Polyethylene glycol dimethacrylate (average molecular weight: 736): 42 parts by mass • Polyethylene glycol dimethacrylate (average molecular weight: 536): 12 parts by mass • Trimethylolpropane methacrylate: 38 parts by mass γ-Methacryloyloxypropyltrimethoxysilane: 2 parts by mass Glycidyl methacrylate: 1 part by mass.
Note that, in the curable composition, the photochromic compound was added in an amount of 0.25 mmol taking a total amount of the radical polymerizable monomers as 100 g.
Phenylbis(2,4,6-trimethylbenzoyl)phosphine oxide (photoinitiator: Omnirad 819): 0.3 parts by mass Ethylene bis(oxyethylene) bis[3-(5-tert-butyl-4-hydroxy-m-tolyl) propionate] (stabilizer, Irganox 245): 1 part by mass Bis(1,2,2,6,6-pentamethyl-4-piperidyl)sebacate: 3 parts by mass Leveling agent (L-7001) manufactured by DuPont Toray Specialty Materials K.K.: 0.1 parts by mass.
Using this curable composition, a photochromic laminate was obtained by a lamination method including polymerization as follows.
First, a thiourethane plastic lens with a center thickness of 2 mm and a refractive index of 1.60 was prepared as an optical substrate. Note that, the thiourethane plastic lens had been alkaline-etched in a 10% sodium hydroxide aqueous solution at 50°C for 5 minutes in advance, and then thoroughly washed with distilled water.
A spin coater (1H-DX2, manufactured by MIKASA CO., LTD) was used to coat a surface of the above-mentioned plastic lens with a moisture-curing primer (product name: TR-SC-P, manufactured by Tokuyama Corporation) at a rotation speed of 70 rpm for 15 seconds, followed by 1000 rpm for 10 seconds. Then, about 2 g of the photochromic curable composition obtained above was spin-coated at a rotation speed of 60 rpm for 40 seconds, followed by 600 rpm for 10 to 20 seconds so as to achieve a photochromic coating layer with a thickness of 40 µm.
The lens of which surface had been coated with the photochromic curable composition (photochromic coating layer) was irradiated with light for 90 seconds in a nitrogen gas atmosphere using a metal halide lamp with an output of 200 mW/cm^2 to cure the coating. The resultant was then further heated at 110°C for 1 hour to produce a photochromic laminate with a photochromic layer.
Photochromic laminates were produced using the photochromic compounds obtained in Examples 2 to 20 in the same manner as in Example 21.
Photochromic laminates were obtained using photochromic compounds represented by Formulae (A) to (D) below in the same manner as in Example 21. [drawing 89] [drawing 90] [drawing 91] [drawing 92] [drawing 93]
The resulting photochromic laminates were evaluated by the below-mentioned methods. • (1) Photochromic property • [1] Maximum absorption wavelength (λmax): This is the maximum absorption wavelength after color development determined by a spectrophotometer manufactured by Otsuka Electronics Co., Ltd. (instantaneous multichannel photo detector MCPD3000) and was used as an index of a color tone upon color development. • [2] Color developing density at 23°C (A23): This is a difference between an absorbance {ε(240)} after irradiation with light at 23°C for 240 seconds and an absorbance ε(0) when not irradiated with light at the maximum absorption wavelength and was used as an index of a color developing density. The higher this value is, the better a photochromic property is. • [3] Color fading half-life at 23°C [τ1/2 (sec).)]: This is a period of time taken by an absorbance at the maximum absorption wavelength of a sample to decrease to 1/2 of {ε(240)-ε(0)} when irradiation is stopped after irradiation with light at 23°C for 240 seconds, and was used as an index of a color fading rate. The shorter this period of time is, the faster the color fading rate is. • [4] […]

Structure (SMILES)	Dissolution for 15 min [1]	Dissolution for 30 min [1]	Dissolution for 45 min [1]	Dissolution for 1 hour [1]	Residual ratio [2] [%]	Color developing density at 23°C [2]	Color fading half-life at 23°C [2] [min]
CCC(C)C1(CC)c2cc(OC)ccc2-c2c1c1c(c3cc(OC)ccc23)OC(c2ccc(OC)cc2)(c2ccc(N3CCOCC3)cc2)C=C1 (stereo not shown) [Formula (3-2)]	3	1	1	1	–	–	–
CCCCCC1(CCCC)c2ccccc2-c2c1c1c(c3cc(OC)c(N4CCCc5ccccc54)cc23)OC(c2ccc(OC)cc2)(c2ccc(OCCC)cc2)C=C1 (stereo not shown) [Formula (16-1)]	–	–	–	–	59	1.29 -	–
CCCOc1ccc(C2(c3ccc(OC)cc3)C=Cc3c4c(c5cc(OC)c(OC)cc5c3O2)-c2ccc(Sc3cccc(C(F)(F)F)c3)cc2C4(CC)CCC)cc1 (stereo not shown) [Formula (72-3)]	–	–	–	–	57	–	–
CCCOc1ccc(C2(c3ccc(OC)cc3)C=Cc3c4c(c5cc(C)c(OC)cc5c3O2)-c2ccc(N3CCOc5ccccc53)cc2C4(C)CC)cc1 (stereo not shown) [Formula (75-2)]	–	–	–	–	64	–	2.33
CCCCC1(CC)c2ccccc2-c2c1c1c(c3cc(OC)c(-c4ccc(N(c5ccccc5)c5ccccc5)cc4)cc23)OC(c2ccc(N(C)c3ccccc3)cc2)(c2ccc(OCCC)c(F)c2)C=C1 (stereo not shown) [Formula (76-6)]	–	–	–	–	68	–	1.17
CCCCC1(CC)c2ccccc2-c2c1c1c(c3cc(OC)c(-c4ccccc4N4CCOCC4)cc23)OC(c2ccc(OC)cc2)(c2ccc(OC)cc2)C=C1 (stereo not shown) [Formula (81-2)]	–	–	–	–	–	–	1.67
CCCCC1(CC)c2cc(N(C)c3ccccc3)ccc2-c2c1c1c(c3cc(OC)c(OC)cc23)OC(c2ccc(OC)cc2)(c2ccc(OCCC)cc2)C=C1 (stereo not shown) [Formula (82-1)]	3	2	1	1	–	–	–
CCCC1(CC)c2ccccc2-c2c1c1c(c3cc(OC)c(N(C)c4ccccc4)cc23)OC(c2ccc(OC)cc2)(c2ccc(N(c3ccccc3)c3ccccc3)cc2)C=C1 (stereo not shown) [Formula (83-2)]	–	–	–	–	74	1.25 -	1.53
CCCC1(CC)c2cc(C)ccc2-c2c1c1c(c3cc(OC)c(-c4ccc(N5CCOCC5)cc4)cc23)OC(c2ccc(C)cc2)(c2ccc(N(C)c3ccccc3)cc2)C=C1 (stereo not shown) [Formula (84-1)]	–	–	–	–	62	–	2
CCCCCCC1(CCCC)c2cc(OC)ccc2-c2c1c1c(c3cc(OC)c(Sc4c(C)cccc4C)cc23)OC(c2ccc(OC)cc2)(c2ccc(N3CCOCC3)cc2)C=C1 (stereo not shown) [Formula (85-1)]	3	2	1	1	–	–	–
CCCC1(C)c2ccccc2-c2c1c1c(c3cc(OC)c(-c4c(OC)cc(OC)cc4OC)cc23)OC(c2ccc(OC)cc2)(c2ccc(N(c3ccccc3)c3ccccc3)cc2)C=C1 (stereo not shown) [Formula (89-1)]	4	2	1	1	–	–	–
COc1ccc(C2(c3ccc(N4CCOCC4)cc3)C=Cc3c4c(c5ccc(OC)cc5c3O2)-c2ccc(OC)cc2C42CC(C)(C)CC(C)(C)C2)cc1 (stereo not shown) [Formula (E), reference compound]	4	3	3	2	–	–	–
CCC1(CC)c2ccccc2-c2c1c1c(c3cc(OC)c(N(C)c4ccccc4)cc23)OC(c2ccc(OC)cc2)(c2ccc(OC)cc2)C=C1 [Formula (F), reference compound]	4	3	3	2	–	–	–
COc1ccc(C2(c3ccc(N4CCOCC4)cc3)C=Cc3c4c(c5cc(-c6ccc(N7CCOCC7)cc6)c(OC)cc5c3O2)-c2ccc(C)cc2C4(C)C)cc1 (stereo not shown) [Formula (G), reference compound]	4	3	3	2	–	–	–
COc1ccc(C2(c3ccc(OC)cc3)C=Cc3c4c(c5ccc(OC)cc5c3O2)-c2ccc(OC(F)(F)F)cc2C4(C)C)cc1 [Formula (H), reference compound]	4	3	3	2	–	–	–
CCCOc1ccc(C2(c3ccc(OC)cc3)C=Cc3c4c(c5cc(OC)c(OC)cc5c3O2)-c2ccc(N(C)c3ccccc3)cc2C4(C)C)cc1 (stereo not shown) [Formula (I), reference compound]	4	4	3	3	–	–	–
CCC1(CC)CCC2(CC1)c1cc(OC)ccc1-c1c2c2c(c3cc(OC)c(Sc4c(C)cccc4C)cc13)OC(c1ccc(OC)cc1)(c1ccc(N3CCOCC3)cc1)C=C2 (stereo not shown) [Formula (J), reference compound]	4	3	3	2	–	–	–
COc1ccc(C2(c3ccc(N4CCOCC4)cc3)C=Cc3c4c(c5cc(Sc6c(C)cccc6C)c(OC)cc5c3O2)-c2ccc(OC)cc2C4(C)C)cc1 (stereo not shown) [Formula (K), reference compound]	4	4	3	3	–	–	–
COc1ccc(C2(c3ccc(N(c4ccccc4)c4ccccc4)cc3)C=Cc3c4c(c5cc(-c6c(OC)cc(OC)cc6OC)c(OC)cc5c3O2)-c2ccccc2C4(C)C)cc1 (stereo not shown) [Formula (L), reference compound]	4	3	2	1	–	–	–
